Measurements reported in ChEMBL document CHEMBL4813909, “Heterocyclic Diamidine DNA Ligands as HOXA9 Transcription Factor Inhibitors: Design, Molecular Evaluation, and Cellular Consequences in a HOXA9-Dependant Leukemia Cell Model” (J Med Chem, 2019).
The source made the active and inactive calls. The rule behind the calls is not given here.

Key:
[1] = Cytotoxicity against mouse MigA9 cells harboring mouse Hoxa9 gene incubated for 72 hrs by MTS assay; assay type: functional, cell-based; details: MigA9, 72 h
[2] = Drug localization in nucleus of human HT-29 cells at 5 uM incubated for 16 hrs by DiOC6/propidium iodide staining based by fluorescence microscopy; assay type: ADME, subcellular; details: ht-29, 16 h
HOXA9 DNA binding site [3] = assay: Inhibition of HOXA9 (unknown origin) expressed in reticulocyte lysate system binding to 32P-radiolabeled DNA Hoxa9-binding site (strand a-CTGCGATGATTTACGACCGC /strand b-GCGGTCGTAAATCATCGCAG) (unknown origin) assessed as HOXA9/DNA inhibition at 2.5 to 20 uM incubated for 20 mins by electrophoretic mobility shift assay relative to control; assay type: subcellular; details: dose 2.5-20 µM
[4] = test system: HOXA9 DNA binding site [UNDEFINED MUTATION]; assay: Binding affinity to DNA Hoxa9-binding site-5'-ATTTA mutant (strand a-CTGCGATGAGTCACGACCGC/strand b-GCGGTCGTGACTCATCGCAG) (unknown origin) by UV/visible spectrophotometric method; assay type: nucleic-acid assay
[5] = test system: HOXA9 DNA binding site [UNDEFINED MUTATION]; assay: Binding affinity to DNA Hoxa9-binding site-5'-ATTTA/5'ATGA double mutant (strand a-CTGCGTAGCGTCACGACCGC/strand b-GCGGTCGTGACGCTACGCAG) (unknown origin) by UV/visible spectrophotometric method; assay type: nucleic-acid assay
[6] = Induction of cell death in mouse MigA9 cells harboring mouse Hoxa9 gene assessed as propidium iodide-positive cells at 15 uM incubated for 24 hrs by propidium iodide staining based flow cytometry (reference value: 9.06 +/- 0.53%); assay type: functional; details: dose 15 µM; time 24 hrs
[7] = Induction of cell death in mouse MigA9 cells harboring mouse Hoxa9 gene assessed as propidium iodide-positive cells at 20 uM incubated for 24 hrs by propidium iodide staining based flow cytometry (reference value: 9.06 +/- 0.53%); assay type: functional; details: dose 20 µM; time 24 hrs
[8] = Induction of cell cycle arrest in mouse MigA9 cells harboring mouse Hoxa9 gene assessed as accumulation at sub-G1 phase at 20 uM incubated for 48 hrs by propidium iodide staining based flow cytometry (reference value: 0.76 +/- 0.1%); assay type: functional
K562 = assay: Anticlonogenic activity in human K562 cells assessed as K562 number at 2.5 uM incubated for 10 days by Methocult-colony forming cell assay relative to control; assay type: functional; details: time 10 day
[9] = Stability in mouse MigA9 cells assessed as visibility of intrinsic fluorescence measured after 10 days by fluorescence microscopy; assay type: ADME, cell-based; details: miga9, 240 h, time 10 day
[10] = Induction of spectral signal at wavelength at 1 to 10 uM by circular dichroism method; assay type: physicochemical; details: dose 1-10 µM
[11] = Induction of cell death in mouse MigA9 cells harboring mouse Hoxa9 gene assessed as propidium iodide-positive cells at 0.5 uM incubated for 24 hrs by propidium iodide staining based flow cytometry (reference value: 9.06 +/- 0.53%); assay type: functional
[12] = Induction of cell death in mouse MigA9 cells harboring mouse Hoxa9 gene assessed as propidium iodide-positive cells at 1 uM incubated for 24 hrs by propidium iodide staining based flow cytometry relative to control; assay type: functional
[13] = Induction of cell death in mouse MigA9 cells harboring mouse Hoxa9 gene assessed as propidium iodide-positive cells at 0.5 uM incubated for 48 hrs by propidium iodide staining based flow cytometry (reference value: 8.75 +/- 0.2%); assay type: functional
[14] = Induction of cell death in mouse MigA9 cells harboring mouse Hoxa9 gene assessed as propidium iodide-positive cells at 1 uM incubated for 48 hrs by propidium iodide staining based flow cytometry (reference value: 8.75 +/- 0.2%); assay type: functional
[15] = Induction of cell cycle arrest in mouse MigA9 cells harboring mouse Hoxa9 gene assessed as accumulation at sub-G1 phase at 0.5 uM incubated for 48 hrs by propidium iodide staining based flow cytometry (reference value: 0.76 +/- 0.1%); assay type: functional
[16] = Induction of cell cycle arrest in mouse MigA9 cells harboring mouse Hoxa9 gene assessed as accumulation at sub-G1 phase at 1 uM incubated for 48 hrs by propidium iodide staining based flow cytometry (reference value: 0.76 +/- 0.1%); assay type: functional
[17] = Drug localization in nucleus of mouse MigA9 cells at 20 uM incubated for 2 hrs by TO-PRO-3/propidium iodide staining based by fluorescence microscopy; assay type: ADME, subcellular; details: miga9, 2 h
[18] = Induction of cell cycle arrest in mouse MigA9 cells expressing mouse Hoxa9 assessed as accumulation at G0/G1 phase at 0.5 uM incubated for 48 hrs by EdU/propidium iodide staining based flow cytometry (reference value: 48.77 +/- 0.19%); assay type: functional
[19] = Induction of cell cycle arrest in mouse MigA9 cells expressing mouse Hoxa9 assessed as accumulation at G0/G1 phase at 1 uM incubated for 48 hrs by EdU/propidium iodide staining based flow cytometry (reference value: 48.77 +/- 0.19%); assay type: functional
[20] = Induction of cell cycle arrest in mouse MigA9 cells expressing mouse Hoxa9 assessed as accumulation at S phase at 0.5 uM incubated for 48 hrs by EdU/propidium iodide staining based flow cytometry (reference value: 46.68 +/- 0.21%); assay type: functional
[21] = Induction of cell cycle arrest in mouse MigA9 cells expressing mouse Hoxa9 assessed as accumulation at S phase at 1 uM incubated for 48 hrs by EdU/propidium iodide staining based flow cytometry (reference value: 46.68 +/- 0.21%); assay type: functional
[22] = Induction of cell cycle arrest in mouse MigA9 cells expressing mouse Hoxa9 assessed as accumulation at G2/M phase at 0.5 uM incubated for 48 hrs by EdU/propidium iodide staining based flow cytometry (reference value: 4.55 +/- 0.16%); assay type: functional
[23] = Induction of cell cycle arrest in mouse MigA9 cells expressing mouse Hoxa9 assessed as accumulation at G2/M phase at 1 uM incubated for 48 hrs by EdU/propidium iodide staining based flow cytometry (reference value: 4.55 +/- 0.16%); assay type: functional
HOXA9 DNA binding site [24] = details: dose 0.5-1 µM

Structure (SMILES) | Activity [11] [%] | Activity [12] [%] | Activity [13] [%] | Activity [14] [%] | Activity [15] [%] | Drug transport [17] | Activity [18] [%] | Activity [20] [%] | Activity [22] [%] | further results
N=C(N)c1ccc(-c2ccc(-c3nc4cc(C(=N)N)ccc4o3)o2)cc1 | – | – | – | – | – | – | – | – | – | IC50 [1]: > 50 µM; Drug transport [2]: Active; inhibition (HOXA9 DNA binding site [3]): inactive; Activity [4]: inactive; Activity [5]: inactive; Activity [6]: 8.89%; Activity [7]: 8.38%; Activity [8]: 0.92%; Activity (K562): 100%; Stabilty [9]: Stable; Activity [10]: Not Active
N=C(Nc1ccc(-c2ccc(-c3ccc(NC(=N)c4ccccn4)cc3)[nH]2)cc1)c1ccccn1 | 5.19 | 14.43 | 8.01 | 17.6 | 1.23 | Active | 48.44 | 46.06 | 5.5 | Activity [16]: 1.04%; Activity [19]: 50.15%; Activity [21]: 43.51%; Activity [23]: 6.34%
N=C(Nc1ccc(-c2ccc(-c3ccc(NC(=N)c4ccccc4)cc3)[nH]2)cc1)c1ccccc1 | 12.9 | 68.8 | 18.33 | 99.33 | 2.47 | Active | 53.83 | 38.84 | 7.32 | ΔTm (HOXA9 DNA binding site [24]): 8 °C
